Several values for one entry are separate records, joined by “and”; a condition that tells them apart may be missing. Equal values may be shown once.
Target: isolated CBM40 from V. cholerae sialidase (Vibrio cholerae serotype O1, UniProt P0C6E9)
Details: ITC, 25° C.; for n (number of binding sites): 10 mM HEPES pH7.4, 0.15M NaCl

isolated CBM40 from V. cholerae sialidase, sequence (P0C6E9 25-216): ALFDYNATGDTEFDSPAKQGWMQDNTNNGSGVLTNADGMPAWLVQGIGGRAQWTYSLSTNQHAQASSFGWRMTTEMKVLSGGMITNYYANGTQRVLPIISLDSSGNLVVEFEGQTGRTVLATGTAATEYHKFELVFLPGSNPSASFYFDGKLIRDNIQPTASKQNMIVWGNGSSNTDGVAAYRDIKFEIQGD

With `CC(=O)N[C@H]1[C@H]([C@H](O)[C@H](O)CO)O[C@@](O[C@H](CO)[C@@H](O)[C@@H]2O[C@@](O[C@H]3[C@@H](O)[C@@H](CO)O[C@@H](O[C@H]4[C@H](O)[C@@H](O)C(O)O[C@@H]4CO)[C@@H]3O)(C(=O)O)C[C@H](O)[C@H]2NC(C)=O)(C(=O)O)C[C@@H]1O` (stereo partly drawn) [DSL, disialyllactose] the Ka was 10.2 ± 0.01 10^−4M, the Kd was 9.8 µM and the TΔS was -23.8 kJ/mol. The ΔG was -28.5 kJ/mol, the ΔH was -52.3 kJ/mol and -52.3 ± 0.013 kJ/mol and the “n (number of binding sites)” value was 0.92 and 0.92 ± 0.001.

`CC(=O)N[C@H]1[C@H]([C@H](O)[C@H](O)CO)O[C@@](OC[C@H]2O[C@@H](O[C@H]3[C@H](O)[C@@H](O)[C@H](O)O[C@@H]3CO)[C@H](O)[C@@H](O)[C@H]2O)(C(=O)O)C[C@@H]1O` [6′SL, 6′sialyllactose] was tested, and the Ka was 5.16 ± 0.03 10^−4M, the Kd was 19 µM and the TΔS was -14.6 kJ/mol. The ΔG was -26.8 kJ/mol, the ΔH was -41.4 ± 0.0084 kJ/mol and the “n (number of binding sites)” value was 1.02 ± 0.001.

With `CC(=O)N[C@H]1[C@H](O[C@H]2[C@@H](O)[C@@H](CO)O[C@@H](O[C@@H]([C@H](O)[C@@H](O)C=O)[C@H](O)CO)[C@@H]2O)O[C@H](CO[C@]2(C(=O)O)C[C@H](O)[C@@H](NC(C)=O)[C@H]([C@H](O)[C@H](O)CO)O2)[C@@H](O)[C@@H]1O[C@@H]1O[C@H](CO)[C@H](O)[C@H](O[C@]2(C(=O)O)C[C@H](O)[C@@H](NC(C)=O)[C@H]([C@H](O)[C@H](O)CO)O2)[C@H]1O` [DSLNT, disialyl-lacto-N-tetraose] the Ka was 7.8 ± 0.06 10^−4M, the Kd was 13 µM and the TΔS was -72.4 kJ/mol. The ΔG was -28 kJ/mol, the ΔH was -100 kJ/mol and -100 ± 0.029 kJ/mol and the “n (number of binding sites)” value was 0.57 and 0.57 ± 0.001.

For `CC(=O)N[C@H]1[C@H]([C@H](O)[C@H](O)CO)O[C@@](O[C@H]2[C@@H](O)[C@@H](CO)O[C@@H](O[C@H]3[C@H](O)[C@@H](O)C(O)O[C@@H]3CO)[C@@H]2O)(C(=O)O)C[C@@H]1O` (stereo partly drawn) [3′SL, 3′sialyllactose], the Ka was 5.48 ± 0.05 10^−4M, the Kd was 18 µM and the TΔS was -41 kJ/mol. For the same molecule, the ΔG was -27.2 kJ/mol, the ΔH was -68.2 ± 0.21 kJ/mol and the “n (number of binding sites)” value was 0.96 ± 0.002.
